Assay results: patent US20240148821A1, “PHARMACEUTICAL USE OF CYCLIC PEPTIDE COMPOUND” (CHUGAI SEIYAKU KABUSHIKI KAISHA, priority 2021, published 2024)
Numbered stars: 1 amine (or outer) side, 2 acyl side, 3 side chain; on linkers, the order of the positions; unused ones are H or OH. Bridge positions count the residues as written; N and C are the ends. Square brackets hold non-standard residues; d marks the D form. Peptide text beside a SMILES is read from it. * marks the point of attachment. hPhe(3,5-F2-4-CF3) = N[C@@H](CCc1cc(F)c(C(F)(F)F)c(F)c1)C(=O)O; hPhe(3-Cl-4-CF3) = N[C@@H](CCc1ccc(C(F)(F)F)c(Cl)c1)C(=O)O; NMePhe(4-CF3) = CN[C@@H](Cc1ccc(C(F)(F)F)cc1)C(=O)O; X120 = O=C([C@H](Cc1cc(F)cc(Br)c1)N[*:1])[*:2]; NEtPhe(4-Me) = CCN[C@@H](Cc1ccc(C)cc1)C(=O)O; NMePhe(4-Cl) = CN[C@@H](Cc1ccc(Cl)cc1)C(=O)O; NMePhe(4-Me) = CN[C@@H](Cc1ccc(C)cc1)C(=O)O; NMedβ3hAla = C[C@H](CC(=O)[*:2])N(C)[*:1]; Phe(3-Br) = N[C@@H](Cc1cccc(Br)c1)C(=O)O; NMeGly(cPent) = CN[C@H](C(=O)O)C1CCCC1; Pro(4,4-F2) = O=C(O)[C@@H]1CC(F)(F)CN1; NMeGly(cBu) = CN[C@H](C(=O)O)C1CCC1; NMeY = CN[C@@H](Cc1ccc(O)cc1)C(=O)O; NMeCha = CN[C@@H](CC1CCCCC1)C(=O)O; NMeChg = CN[C@H](C(=O)O)C1CCCCC1; NMeD = CN[C@@H](CC(=O)O)C(=O)O; NMeL = CN[C@@H](CC(C)C)C(=O)O; NMeAbu = CC[C@H](NC)C(=O)O; Morpholide = C1CN(*)CCO1; NMeA = CN[C@@H](C)C(=O)O; NMeAib = CNC(C)(C)C(=O)O; Nle = CCCC[C@H](N)C(=O)O; Piperidide = C1CCN(*)CC1; Pyrrolidide = C1CCN(*)C1; Ac5c = NC1(C(=O)O)CCCC1; Aze = O=C(O)[C@@H]1CCN1; Sar = CNCC(=O)O

Test system: Human pancreatic cancer cell line AsPC-1 (G12D mutation Kras)
Experiment: AsPC-1 cell growth inhibition (AsPC-1 CGI)
Assay type: cell-based
Details: read-out: AsPC-1 cell growth inhibition, 50% growth inhibitory concentration (IC50 value); 96 hours, CellTiter-Glo, values classified in ranges
Procedure: Test compounds were serially dilated with dimethyl sulfoxide, and 200 nL was then dispensed to a U-bottom 96-well plate using Labcyte Echo. […] The cell suspension was dispensed to a. plate containing a test compound at 100 μL per well and incubated at 37° C. in a 5% carbon dioxide gas incubator. 96 hours later, 80 μL of CellTiter-Glo (Promega) was added to each well and fluorescence was measured.

| Compound | IC50 [nM] |
| --- | --- |
| CC[C@H](C)[C@@H]1NC(=O)[C@H](C2CCC2)N(C)C(=O)C[C@@H](C(=O)N2CCCC2)N(C)C(=O)[C@H](C2CCCCC2)N(C)C(=O)C2(CCCC2)NC(=O)[C@@H]2CC(F)(F)CN2C(=O)[C@H](CCc2ccc(C(F)(F)F)c(Cl)c2)NC(=O)CN(C)C(=O)[C@H](CC2CCCCC2)N(C)C(=O)CN(C)C(=O)CN(C)C1=O [Compound 1363] ([NMeGly(cBu)]I[Sar][Sar][NMeCha][Sar][hPhe(3-Cl-4-CF3)][Pro(4,4-F2)][Ac5c][NMeChg][NMeD]-Pyrrolidide; lactam N-11) | ≤ 20 |
| CC[C@H](C)[C@@H]1NC(=O)[C@H](CC(C)C)N(C)C(=O)C[C@@H](C(=O)N2CCOCC2)N(C)C(=O)[C@H](C2CCCC2)N(C)C(=O)C2(CCCC2)NC(=O)[C@@H]2CCCN2C(=O)[C@H](CCc2cc(F)c(C(F)(F)F)c(F)c2)NC(=O)CN(C)C(=O)[C@H](Cc2ccc(C)cc2)N(CC)C(=O)[C@@H]2CCN2C(=O)[C@H](C)N(C)C1=O [Compound 1368] ([NMeL]I[NMeA][Aze][NEtPhe(4-Me)][Sar][hPhe(3,5-F2-4-CF3)]P[Ac5c][NMeGly(cPent)][NMeD]-Morpholide; lactam N-11) | ≤ 20 |
| CCCC[C@@H]1NC(=O)[C@H](Cc2cc(F)cc(Br)c2)NC(=O)CN(C)C(=O)[C@H](Cc2ccc(OC)cc2)N(C)C(=O)[C@@H]2CCN2C(=O)[C@H](C)N(C)C(=O)[C@H]([C@@H](C)CC)NC(=O)[C@H](CC)N(C)C(=O)C[C@@H](C(=O)N2CCCCC2)N(C)C(=O)[C@H](CC(C)C)NC(=O)C(C)(C)N(C)C1=O [Compound 1372] ([NMeAbu]I[NMeA][Aze][NMeY](Me)[Sar][X120][Nle][NMeAib]L[NMeD]-Piperidide; lactam N-11) | > 500 |
| CC[C@H](C)[C@@H]1NC(=O)[C@H](C)N(C)C(=O)C[C@@H](C)N(C)C(=O)[C@H](CC(C)C)NC(=O)C(C)(C)N(C)C(=O)[C@H](CC(C)C)NC(=O)[C@H](CCc2ccc(C(F)(F)F)c(Cl)c2)NC(=O)CN(C)C(=O)[C@H](Cc2ccc(C)cc2)N(C)C(=O)[C@@H]2CCN2C(=O)CN(C)C1=O [Compound 1377] (cyclo([Aze][NMePhe(4-Me)][Sar][hPhe(3-Cl-4-CF3)]L[NMeAib]L[NMedβ3hAla][NMeA]I[Sar])) | > 500 |
| CC[C@H](C)[C@@H]1NC(=O)[C@H](CC(C)C)N(C)C(=O)C[C@@H](C)N(C)C(=O)[C@H](CC(C)C)NC(=O)C(C)(C)N(C)C(=O)[C@H](CC(C)C)NC(=O)[C@H](CCc2ccc(C(F)(F)F)c(Cl)c2)NC(=O)CN(C)C(=O)[C@H](Cc2ccc(C)cc2)N(C)C(=O)[C@@H]2CCN2C(=O)CN(C)C1=O [Compound 1386] (cyclo([Aze][NMePhe(4-Me)][Sar][hPhe(3-Cl-4-CF3)]L[NMeAib]L[NMedβ3hAla][NMeL]I[Sar])) | > 500 |
| CC[C@H](C)[C@@H]1NC(=O)[C@H](C)N(C)C(=O)C[C@@H](C)N(C)C(=O)[C@H](CC(C)C)NC(=O)C(C)(C)N(C)C(=O)[C@H](CC(C)C)NC(=O)[C@H](CCc2ccc(C(F)(F)F)c(Cl)c2)NC(=O)CN(C)C(=O)[C@H](CC2CCCCC2)N(C)C(=O)[C@@H]2CCN2C(=O)CN(C)C1=O [Compound 1387] (cyclo([Aze][NMeCha][Sar][hPhe(3-Cl-4-CF3)]L[NMeAib]L[NMedβ3hAla][NMeA]I[Sar])) | > 500 |
| CC[C@H](C)[C@@H]1NC(=O)[C@H](C)N(C)C(=O)C[C@@H](C)N(C)C(=O)[C@H](CC(C)C)NC(=O)C(C)(C)N(C)C(=O)[C@H](CC(C)C)NC(=O)[C@H](CCc2ccc(C(F)(F)F)c(Cl)c2)NC(=O)CN(C)C(=O)[C@H](Cc2ccc(C(F)(F)F)cc2)N(C)C(=O)[C@@H]2CCN2C(=O)CN(C)C1=O [Compound 1392] (cyclo([Aze][NMePhe(4-CF3)][Sar][hPhe(3-Cl-4-CF3)]L[NMeAib]L[NMedβ3hAla][NMeA]I[Sar])) | > 500 |
| CC[C@H](C)[C@@H]1NC(=O)[C@H](CC(C)C)N(C)C(=O)C[C@@H](C)N(C)C(=O)[C@H](CC(C)C)NC(=O)C(C)(C)N(C)C(=O)[C@H](CC(C)C)NC(=O)[C@H](CCc2ccc(C(F)(F)F)c(Cl)c2)NC(=O)CN(C)C(=O)[C@H](Cc2ccc(C(F)(F)F)cc2)N(C)C(=O)CN(C)C(=O)CN(C)C1=O [Compound 1396] (cyclo(I[Sar][Sar][NMePhe(4-CF3)][Sar][hPhe(3-Cl-4-CF3)]L[NMeAib]L[NMedβ3hAla][NMeL])) | > 500 |
| CC[C@H](C)[C@@H]1NC(=O)[C@H](CC(C)C)N(C)C(=O)C[C@@H](C)N(C)C(=O)[C@H](CC(C)C)NC(=O)C(C)(C)N(C)C(=O)[C@H](CC(C)C)NC(=O)[C@H](CCc2ccc(C(F)(F)F)c(Cl)c2)NC(=O)CN(C)C(=O)[C@H](Cc2ccc(C(F)(F)F)cc2)N(C)C(=O)[C@@H]2CCN2C(=O)CN(C)C1=O [Compound 1403] (cyclo([Aze][NMePhe(4-CF3)][Sar][hPhe(3-Cl-4-CF3)]L[NMeAib]L[NMedβ3hAla][NMeL]I[Sar])) | > 500 |
| CCCC[C@@H]1NC(=O)[C@H](Cc2cccc(Br)c2)NC(=O)CN(C)C(=O)[C@H](Cc2ccc(Cl)cc2)N(C)C(=O)CN(C)C(=O)CN(C)C(=O)[C@H]([C@@H](C)CC)NC(=O)[C@H](CC(C)C)N(C)C(=O)C[C@@H](C(=O)N2CCCCC2)N(C)C(=O)[C@H](CC(C)C)NC(=O)C(C)(C)N(C)C1=O [Compound 1404] ([NMeL]I[Sar][Sar][NMePhe(4-Cl)][Sar][Phe(3-Br)][Nle][NMeAib]L[NMeD]-Piperidide; lactam N-11) | > 500 |
